# Measurements taken from PMC8041284, “Tunable Methacrylamides for Covalent Ligand Directed Release Chemistry” (Journal of the American Chemical Society, 2021).
# Molecular target: BTK (Homo sapiens, UniProt Q06187)
# Experiment: biochemical
# Conditions: read-out: BTK inhibition (%), 0.75 uM BTK, […] probe 3l, 15 min preincubation
# Sequence of BTK (Q06187 402-655 limits assumed): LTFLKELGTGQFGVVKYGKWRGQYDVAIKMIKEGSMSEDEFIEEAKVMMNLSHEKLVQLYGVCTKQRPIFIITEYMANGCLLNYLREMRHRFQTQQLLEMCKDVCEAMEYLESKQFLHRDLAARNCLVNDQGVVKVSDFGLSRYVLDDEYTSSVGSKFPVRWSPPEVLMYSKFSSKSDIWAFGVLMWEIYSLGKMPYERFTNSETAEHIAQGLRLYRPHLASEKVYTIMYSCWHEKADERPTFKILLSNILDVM
row,inhibition at 10 µM [%],SMILES
1,28.9,CN[C@@H]1[C@@H](O)[C@@H](O[C@@H]2[C@@H](O)[C@H](O[C@H]3OC(CN)=CC[C@H]3N)[C@@H](N)C[C@H]2N)OC[C@]1(C)O [PCM-0215656]
2,-25.5,CCC(=O)N1CCN(c2ccc(-n3c(=O)ccc4cnc5ccc(-c6cnc7ccccc7c6)cc5c43)cc2C(F)(F)F)CC1 [PCM-0095455]
3,-10.9,COC(=O)c1ccccc1O [PCM-0215919]
4,17.2,O=C(O)c1cc(N=Nc2ccc(O)c(C(=O)O)c2)ccc1O [PCM-0214745]
5,3.1,CC(C)(C)C1CCC(CC2=C(O)c3ccccc3C(=O)C2=O)CC1 (centres unmarked) [PCM-0214772]
6,-72.3,CCCCCCCCCCCCCCCCOP(=O)([O-])OCC[N+](C)(C)C [PCM-0090698]
7,1.4,CCc1cccc2c3c([nH]c12)C(CC)(CC(=O)O)OCC3 (centres unmarked) [PCM-0094929]
8,-4.8,Cc1cc(O)c2c(c1)C(=O)c1cccc(O)c1C2=O [PCM-0090919]
9,37.9,C=CCc1ccc(O)c(-c2ccc(O)c(CC=C)c2)c1 [PCM-0094855]
10,-6.8,CCOC(CN1CCN(CC(C)C(=O)c2ccccc2)CC1)c1ccccc1 (centres unmarked) [PCM-0215205]
11,-30.6,CN(CC(=O)O)C(=N)N [PCM-0216212]
12,14.8,COC(=O)C1=C(C#N)NC(C)=C(C(=O)OC(C)C)C1c1cccc([N+](=O)[O-])c1 (centres unmarked) [PCM-0086361]
13,4.7,O=C(NC(Cc1cc(=O)[nH]c2ccccc12)C(=O)O)c1ccc(Cl)cc1 (centres unmarked) [PCM-0086359]
14,23.9,C=C1C(=O)O[C@H]2[C@H]1CCC(C)=C1CC[C@@](C)(O)[C@@H]12 [PCM-0216540]
15,111,CN1CCN(Cc2ccc(-c3cnc4[nH]cc(-c5ccc6[nH]ccc6c5)c4c3)cc2)CC1 [PCM-0215377]
16,-4.6,CC(=O)O[C@@H](C[C@@H](C)C1=C2C[C@H](O)[C@H]3[C@@]4(C)CCC(=O)C(C)(C)[C@@H]4CC[C@]3(C)[C@@]2(C)CC1)[C@H]1OC1(C)C [PCM-0216390]
17,0.7,COc1ccc(-c2ccc3ncc4c(c3c2)n(-c2ccc(N3CCNCC3)c(C(F)(F)F)c2)c(=O)n4C)cn1 [PCM-0095488]
18,-8.6,Nc1nc(F)nc2c1ncn2[C@@H]1O[C@H](COP(=O)(O)O)[C@@H](O)[C@@H]1O [PCM-0090501]
19,-3.4,COC(=O)Nc1nc2ccc(C(=O)c3ccc(F)cc3)cc2[nH]1 [PCM-0086402]
20,-1.6,Nc1nc(=S)c2[nH]cnc2[nH]1 [PCM-0090185]
21,48.3,CC(C)CCN1c2nc(Nc3cc(F)c(O)c(F)c3)ncc2N(C)C(=O)C1C (centres unmarked) [PCM-0095469]
22,23.9,Cc1cc(SCc2sc(-c3ccc(C(F)(F)F)cc3)nc2C)ccc1OCC(=O)O [PCM-0215226]
23,-7.8,Nc1c2c(nc3ccccc13)CCCC2 [PCM-0064528]
24,-23.2,Nc1ncnc2c1ncn2[C@@H]1O[C@H](COP(=O)(O)O)[C@@H](O)[C@H]1O [PCM-0086027]
25,13.6,O=C[C@H](O)[C@@H](O)[C@H](O)[C@H](O)COP(=O)(O)O [PCM-0216185]
26,-3.9,CN1CC[C@@H](NC(=O)Nc2ccc(C#N)cc2)C[C@@H]1c1nc2ccccc2[nH]1 [PCM-0215365]
27,3.1,CCOC(=O)c1ncn2c1CN(C)C(=O)c1cc(F)ccc1-2 [PCM-0065129]
28,79.5,O=C1CC(=O)c2c(Cl)c(Cl)c(Cl)c(Cl)c21 [PCM-0215201]

row,inhibition at 10 µM [%],SMILES
1,-0.7,O=C(Nc1cccc(C(F)(F)F)c1)c1cccc2cc(Oc3cc(CO)ncn3)ccc12 [PCM-0215724]
2,33.1,NC1(C(=O)N[C@@H](CCO)c2ccc(Cl)cc2)CCN(c2ncnc3[nH]ccc23)CC1 [PCM-0095607]
3,-10.3,COc1ccc([C@@H]2CC(=O)c3c(O)cc(O[C@@H]4O[C@H](CO)[C@@H](O)[C@H](O)[C@H]4O[C@@H]4O[C@@H](C)[C@H](O)[C@@H](O)[C@H]4O)cc3O2)cc1O [PCM-0214691]
4,-10.8,CN1CCC(NC(=O)c2cc(-c3c(O)cc(O)cc3Oc3ccc([N+](=O)[O-])cc3)on2)CC1 [PCM-0215304]
5,-4.6,O=C(O)c1ccc(O)c2ncccc12 [PCM-0215316]
6,82.8,Cc1cnc(Nc2ccc(N3CCN(C)CC3)cc2)nc1Nc1cccc(S(=O)(=O)NC(C)(C)C)c1 [PCM-0095386]
7,-9.3,N=c1cc(N2CCCCC2)nc(N)n1OS(=O)(=O)O [PCM-0216071]
8,-13.6,CCC(C)n1ncn(-c2ccc(N3CCN(c4ccc(OC[C@H]5CO[C@](Cn6cncn6)(c6ccc(Cl)cc6Cl)O5)cc4)CC3)cc2)c1=O (some centres unmarked) [PCM-0090573]
9,95.9,Cc1c(C(=O)Nc2ccc(Oc3ccnc4[nH]cc(-c5ccccc5)c34)c(F)c2)c(=O)n(-c2ccc(F)cc2)n1C [PCM-0215493]
10,9.3,Clc1ncnc2nc[nH]c12 [PCM-0215064]
11,-2.8,O=C(Cc1ccc(-c2ccc(OCCN3CCOCC3)cc2)cn1)NCc1ccccc1 [PCM-0095410]
12,17,CCCCOc1nc(N)c2c(n1)N(Cc1cccc(CN3CCCC3)c1)CC(=O)N2 [PCM-0215695]
13,-29.3,C[C@H](C[C@H](O)[C@@H](O)C(C)(C)O)C1=C2C[C@H](O)[C@H]3[C@@]4(C)CCC(=O)C(C)(C)[C@@H]4CC[C@]3(C)[C@@]2(C)CC1 [PCM-0216519]
14,38.1,CCN(CC)C(=O)/C(C#N)=C/c1cc(O)c(O)c([N+](=O)[O-])c1 [PCM-0085960]
15,-8.6,Cc1cccc(C)c1NC(=O)CN1CCCC1=O [PCM-0065191]
16,34.2,O=c1cc(-c2ccccc2)oc2cc(O)cc(O)c12 [PCM-0088446]
17,4.6,O=C(/C=C/C=C/c1ccccc1)CCc1ccccc1 [PCM-0216550]
18,-0.9,O=c1n(CCCN2CCN(c3cccc(Cl)c3)CC2)nc2ccccn12 [PCM-0064865]
19,15.9,C[C@@H]1O[C@@H](O[C@@H]2[C@@H](O)[C@H](OCCc3ccc(O)c(O)c3)O[C@H](CO)[C@H]2OC(=O)/C=C/c2ccc(O)c(O)c2)[C@H](O)[C@H](O)[C@H]1O [PCM-0216174]
20,8.6,C[C@@H]1CC[C@H]2C(C)(C)C3CC12CC[C@@]3(C)O (some centres unmarked) [PCM-0215144]
21,-8.6,CCO[C@@H]1OC(=O)C[C@@H]1NC(=O)[C@@H]1CCCN1C(=O)[C@@H](NC(=O)c1ccc(N)c(Cl)c1)C(C)(C)C [PCM-0214671]
22,-4.1,Nc1cc(C(F)(F)F)c(-c2cc(N3CCOCC3)nc(N3CCOCC3)n2)cn1 [PCM-0095286]
23,-17,CC(=O)N1CCN(CCOc2ccc(C3CCN(C4=Nn5c(nnc5C(F)(F)F)CC4)CC3)cc2)CC1 [PCM-0215224]
24,-7.8,COc1ccc(-n2nc(C(N)=O)c3c2C(=O)N(c2ccc(N4CCCCC4=O)cc2)CC3)cc1 [PCM-0095150]
25,3.1,CNC(=O)c1ccc2cc([C@@]3(O)CCn4cncc43)ccc2c1 [PCM-0095080]
26,-4.6,CCc1ccc(-c2nc(CSCC(=O)NCCc3ccccc3)c(C)o2)cc1 [PCM-0215904]
27,-23.8,COc1cc2c(cc1OC)C(=O)C(CC1CCN(Cc3ccccc3)CC1)C2 (centres unmarked) [PCM-0090394]

row,SMILES,inhibition at 10 µM [%]
1,O=C1CCC[C@@H]2[C@H]3CCCN4CCC[C@H](CN12)[C@@H]34 [PCM-0215044],-16.3
